Data: BindingDB's records for doi:10.7270/Q2183BCW (D3R/Abbott, 2020)
pIC50: −log10 of the molar value.

The compounds below were run against Cathepsin S (Homo sapiens, UniProt P25774) (assay: D3R2024).
Text: D3R2024

Cathepsin S, sequence (P25774 whole entry): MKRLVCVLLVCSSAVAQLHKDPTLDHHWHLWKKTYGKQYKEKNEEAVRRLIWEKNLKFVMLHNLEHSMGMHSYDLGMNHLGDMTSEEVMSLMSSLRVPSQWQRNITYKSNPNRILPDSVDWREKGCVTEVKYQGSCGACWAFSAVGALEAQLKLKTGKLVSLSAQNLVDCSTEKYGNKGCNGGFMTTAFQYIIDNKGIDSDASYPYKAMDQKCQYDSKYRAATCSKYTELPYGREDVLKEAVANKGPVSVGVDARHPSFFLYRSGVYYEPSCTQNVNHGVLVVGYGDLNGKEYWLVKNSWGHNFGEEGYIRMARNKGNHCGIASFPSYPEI

Row | Structure (SMILES) | pIC50
1 | COc1cc(Nc2nccc(N3CCC(NC(=O)c4cc5ccccc5s4)C3)n2)cc(OC)c1OC (configuration not stated) [D3RKN_104] | 6.15
2 | COC(=O)c1cccc(NC(=O)NC2CCN(c3ccnc(Nc4ccc(F)cc4)n3)C2)c1 (configuration not stated) [TCMDC-133606] | 5.00
3 | COc1ccc(Nc2nccc(N3CCC(NC(=O)c4cccc(NC(C)=O)c4)C3)n2)cc1 (configuration not stated) [D3RKN_111] | 5.62
4 | COc1ccc(Nc2nccc(N3CCC(NS(=O)(=O)c4ccc(NC(C)=O)cc4)C3)n2)cc1 (configuration not stated) [D3RKN_103] | 7.28
5 | Cc1ccc(C)c(NC(=O)NC2CCN(c3ccnc(Nc4ccc(F)cc4)n3)C2)c1 (configuration not stated) [D3RKN_108] | 5.00
6 | COc1cc(Nc2nccc(N3CCC(NC(=O)c4cccc(C#N)c4)C3)n2)cc(OC)c1OC (configuration not stated) [D3RKN_105] | 6.74
7 | CCCc1ccc(S(=O)(=O)NC2CCN(c3ccnc(Nc4ccc(OC)cc4)n3)C2)cc1 (configuration not stated) [D3RKN_102] | 6.17
8 | COC(=O)c1cccc(NC(=O)NC2CCN(c3ccnc(Nc4cc(OC)c(OC)c(OC)c4)n3)C2)c1 (configuration not stated) [D3RKN_99] | 6.47
9 | COc1cc(Nc2nccc(N3CCC(NC(=O)c4cccc(NC(C)=O)c4)C3)n2)cc(OC)c1OC (configuration not stated) [D3RKN_114] | 7.27
10 | COC(=O)c1cccc(NC(=O)NC2CCN(c3ccnc(Nc4ccc(OC)cc4)n3)C2)c1 (configuration not stated) [D3RKN_113] | 5.00
11 | COC(=O)C(Cc1ccccc1)NC(=O)NC1CCN(c2ccnc(Nc3ccc(F)cc3)n2)C1 (configuration not stated) [D3RKN_109] | 5.72
12 | COc1ccc(Nc2nccc(N3CCC(NC(=O)Nc4cc(C)ccc4C)C3)n2)cc1 (configuration not stated) [D3RKN_115] | 5.00
13 | N#Cc1cccc(C(=O)NC2CCN(c3ccnc(Nc4ccc(F)cc4)n3)C2)c1 (configuration not stated) [D3RKN_100] | 5.24
14 | O=C(NC1CCN(c2ccnc(Nc3ccc(F)cc3)n2)C1)c1cc2ccccc2s1 (configuration not stated) [D3RKN_110] | 5.00
15 | COc1ccc(Nc2nccc(N3CCC(NC(=O)c4cccc(C#N)c4)C3)n2)cc1 (configuration not stated) [D3RKN_112] | 5.33
16 | COC(=O)C(NC(=O)NC1CCN(c2ccnc(Nc3ccc(F)cc3)n2)C1)c1ccccc1 (configuration not stated) [D3RKN_106] | 5.11
17 | COc1cc(Nc2nccc(N3CCC(NC(=O)Nc4cc(C)ccc4C)C3)n2)cc(OC)c1OC (configuration not stated) [D3RKN_101] | 5.00
